# Source: patent US8765730B2 (Hoffmann-La Roche Inc, priority 2010, dated 2014)
# Target: T1, human GPBAR1 receptor (Homo sapiens, UniProt Q8TDU6)
# T1 construct: expressed in transfected cells
# T1 sequence (Q8TDU6 1-330): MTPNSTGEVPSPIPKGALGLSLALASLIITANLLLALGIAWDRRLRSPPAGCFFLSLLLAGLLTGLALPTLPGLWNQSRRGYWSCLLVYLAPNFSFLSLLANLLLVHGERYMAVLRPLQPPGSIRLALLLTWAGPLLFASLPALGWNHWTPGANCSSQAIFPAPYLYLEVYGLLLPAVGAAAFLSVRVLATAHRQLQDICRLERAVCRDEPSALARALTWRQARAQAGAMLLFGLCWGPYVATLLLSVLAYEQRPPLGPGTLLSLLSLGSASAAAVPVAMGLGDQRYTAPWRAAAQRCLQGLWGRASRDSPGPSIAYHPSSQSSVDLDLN
# Experiment: functional cAMP assay in CHO-dhfr(minus) cells expressing human GPBAR1 receptors
# Assay type: cell-based
# Settings: human EC50, functional cAMP assay, 30 min at 30° C.
# Procedure: The final clone was verified by DNA sequence analysis. The plasmid was transfected into CHO cells deficient in dihydrofolate reductase activity (CHO-dhfr−) using Lipofectamine plus (Invitrogen). Clones were isolated in limited dilution conditions and identified by activities in the cAMP assay using lithocholic acid as agonist.
# The growth medium was exchanged with Krebs Ringer Bicarbonate buffer with 1 mM IBMX and incubated at 30° C. for 30 min. Compounds were added to a final assay volume of 100 μl and incubated for 30 min at 30° C. […] The time-resolved energy transfer is measured by a TRF reader (Evotec Technologies GmbH, Hamburg Germany), equipped with a ND:YAG laser as excitation source.
# EC50 values were determined using Activity Base analysis (ID Business Solution, Limited). […] Specificity for GPBAR1 was tested in non-transfected CHO cells in the same assay as above.
row,Compound,EC50 [nM]
1,"ON=C(CC(c1ccccc1)c1ccc(Br)cc1)c1ccnc(Cl)c1 (racemic) [Example 46, 3-(4-Bromo-phenyl)-1-(2-chloro-pyridin-4-yl)-3-phenyl-propan-1-one oxime]",1360
2,"Cc1ccccc1C(CC(=NO)c1cc(Cl)ccc1Cl)c1ccc(Br)cc1 (racemic) [Example 49, 3-(4-Bromo-phenyl)-1-(2,5-dichloro-phenyl)-3-o-tolyl-propan-1-one oxime]",2910
3,"ON=C(CC(c1ccccc1)c1ccccc1)c1cc(Cl)ncc1F (racemic) [Example 55, 1-(2-Chloro-5-fluoro-pyridin-4-yl)-3,3-diphenyl-propan-1-one oxime]",117
4,"Cc1cc(C(CC(c2ccccc2)c2ccccc2)=NO)ccn1 (racemic) [Example 57, 1-(2-Methyl-pyridin-4-yl)-3,3-diphenyl-propan-1-one oxime]",73
5,"ON=C(CC(c1ccccc1)c1ccccc1)c1cc(F)ncc1Cl (racemic) [Example 58, 1-(5-Chloro-2-fluoro-pyridin-4-yl)-3,3-diphenyl-propan-1-one oxime]",76
6,"Cc1cnc(F)cc1C(CC(c1ccccc1)c1ccccc1)=NO (racemic) [Example 59, 1-(2-Fluoro-5-methyl-pyridin-4-yl)-3,3-diphenyl-propan-1-one oxime]",17
7,"ON=C(CC1c2ccccc2-c2ccccc21)c1ccncc1 (racemic) [Example 61, 2-(9H-Fluoren-9-yl)-1-pyridin-4-yl-ethanone oxime]",4590
8,"CN(C)c1ccc(C(CC(=NO)c2ccncc2)c2c[nH]c3ccccc23)cc1 (racemic) [Example 62, 3-(4-Dimethylamino-phenyl)-3-(1H-indol-3-yl)-1-pyridin-4-yl-propan-1-one oxime]",2710
9,"Cc1[nH]c2ccccc2c1C(CC(=NO)c1ccncc1)c1ccc(N(C)C)cc1 (racemic) [Example 63, 3-(4-Dimethylamino-phenyl)-3-(2-methyl-1H-indol-3-yl)-1-pyridin-4-yl-propan-1-one oxime]",2730
10,"Cc1cc(C(CC(c2ccccc2)c2ccccc2)=NO)cc(C)n1 (racemic) [Example 67, 1-(2,6-Dimethyl-pyridin-4-yl)-3,3-diphenyl-propan-1-one oxime]",132
11,"Cc1ccccc1C(CC(=NO)c1ccncc1)c1ccc(C(=O)O)cc1 (racemic) [Example 70, 4-{3-[Hydroxyimino]-3-pyridin-4-yl-1-o-tolyl-propyl}-benzoic acid]",2730
12,"Cc1ccccc1C(CC(=NO)c1ccncc1)c1cccc(C(=O)O)c1 (racemic) [Example 71, 3-{3-[Hydroxyimino]-3-pyridin-4-yl-1-o-tolyl-propyl}-benzoic acid]",1620
13,"CCOC(=O)c1cccc(-c2ccc(C(CC(=NO)c3ccnc(C)c3)c3ccccc3C)cc2)c1 (racemic) [Example 78, 4′-[3-[Hydroxyimino]-3-(2-methyl-pyridin-4-yl)-1-o-tolyl-propyl]-biphenyl-3-carboxylic acid ethyl ester]",381
14,"COC(=O)c1ccc(-c2ccc(C(CC(=NO)c3ccnc(C)c3)c3ccccc3C)cc2)c(F)c1 (racemic) [Example 81, 2-Fluoro-4′-[3-[hydroxyimino]-3-(2-methyl-pyridin-4-yl)-1-o-tolyl-propyl]-biphenyl-4-carboxylic acid methyl ester]",295
15,"Cc1cc(C(CC(c2ccc(-c3ccc(C(=O)O)cc3F)cc2)c2ccccc2C)=NO)ccn1 (racemic) [Example 82, 2-Fluoro-4′-[3-[hydroxyimino]-3-(2-methyl-pyridin-4-yl)-1-o-tolyl-propyl]-biphenyl-4-carboxylic acid]",43
16,"COC(=O)c1ccc(-c2ccc(C(CC(=NO)c3ccnc(C)c3)c3ccccc3C)cc2)cc1Cl (racemic) [Example 83, 3-Chloro-4′-[3-[hydroxyimino]-3-(2-methyl-pyridin-4-yl)-1-o-tolyl-propyl]-biphenyl-4-carboxylic acid methyl ester]",455
17,"Cc1cc(C(CC(c2ccc(-c3ccc(C(=O)O)c(Cl)c3)cc2)c2ccccc2C)=NO)ccn1 (racemic) [Example 84, 3-Chloro-4′-[3-[hydroxyimino]-3-(2-methyl-pyridin-4-yl)-1-o-tolyl-propyl]-biphenyl-4-carboxylic acid]",27

row,Compound,EC50 [nM]
1,"Cc1cc(C(CC(c2ccc(C#CCO)cc2)c2ccccc2C)=NO)ccn1 (racemic) [Example 85, 3-[4-(3-Hydroxy-prop-1-ynyl)-phenyl]-1-(2-methyl-pyridin-4-yl)-3-o-tolyl-propan-1-one oxime]",1
2,"Cc1cc(/C(CC(c2ccc(/C=C/C(=O)O)cc2)c2ccccc2C)=N\O)ccn1 (racemic) [Example 87, 3-{4-[3-[Hydroxyimino]-3-(2-methyl-pyridin-4-yl)-1-o-tolyl-propyl]-phenyl}-acrylic acid]",241
3,"Cc1cc(C(CC(c2ccc(CCCO)cc2)c2ccccc2C)=NO)ccn1 (racemic) [Example 88, 3-[4-(3-Hydroxy-propyl)-phenyl]-1-(2-methyl-pyridin-4-yl)-3-o-tolyl-propan-1-one oxime]",12
4,"Cc1cc(C(CC(c2ccc(-c3ccc(C(=O)NCCC(=O)O)cc3)cc2)c2ccccc2C)=NO)ccn1 (racemic) [Example 89, 3-({4′-[3-[Hydroxyimino]-3-(2-methyl-pyridin-4-yl)-1-o-tolyl-propyl]-biphenyl-4-carbonyl}-amino)-propionic acid]",7
5,"Cc1cc(C(CC(c2ccc(-c3ccc(C(=O)NCC(=O)O)cc3)cc2)c2ccccc2C)=NO)ccn1 (racemic) [Example 90, ({4′-[3-[Hydroxyimino]-3-(2-methyl-pyridin-4-yl)-1-o-tolyl-propyl]-biphenyl-4-carbonyl}-amino)-acetic acid]",10
6,"Cc1cc(C(C[C@@H](c2ccc(-c3ccc(C(=O)N[C@@H](C)C(=O)O)cc3)cc2)c2ccccc2C)=NO)ccn1 (racemic) [Example 95, (S)-2-({4′-[(S)-3-[Hydroxyimino]-3-(2-methyl-pyridin-4-yl)-1-o-tolyl-propyl]-biphenyl-4-carbonyl}-amino)-propionic acid]",39
7,"Cc1cc(C(C[C@@H](c2ccc(-c3ccc(C(=O)N[C@H](C)c4ccccc4)cc3)cc2)c2ccccc2C)=NO)ccn1 (racemic) [Example 97, 4′-[(S)-3-[Hydroxyimino]-3-(2-methyl-pyridin-4-yl)-1-o-tolyl-propyl]-biphenyl-4-carboxylic acid ((R)-1-phenyl-ethyl)-amide]",177
8,"Cc1cc(C(CC(c2cccc(Br)c2)c2ccccc2C)=NO)ccn1 (racemic) [Example 98, 3-(3-Bromo-phenyl)-1-(2-methyl-pyridin-4-yl)-3-o-tolyl-propan-1-one oxime]",146
9,"Cc1cc(C(CC(c2cccc(-c3ccc(C(=O)O)nc3)c2)c2ccccc2C)=NO)ccn1 (racemic) [Example 99, 5-{3-[3-[Hydroxyimino]-3-(2-methyl-pyridin-4-yl)-1-o-tolyl-propyl]-phenyl}-pyridine-2-carboxylic acid]",5050
10,"COC(=O)c1ccc(-c2cccc(C(CC(=NO)c3ccnc(C)c3)c3ccccc3C)c2)cc1F (racemic) [Example 100, 3-Fluoro-3′-[3-[hydroxyimino]-3-(2-methyl-pyridin-4-yl)-1-o-tolyl-propyl]-biphenyl-4-carboxylic acid methyl ester]",514
11,"Cc1cc(C(CC(c2cccc(-c3cccc(C(=O)O)c3)c2)c2ccccc2C)=NO)ccn1 (racemic) [Example 102, 3′-[3-[Hydroxyimino]-3-(2-methyl-pyridin-4-yl)-1-o-tolyl-propyl]-biphenyl-3-carboxylic acid]",323
12,"Cc1cc(C(CC(c2cccc(-c3ccc(S(C)(=O)=O)cc3)c2)c2ccccc2C)=NO)ccn1 (racemic) [Example 104, 3-(4′-Methanesulfonyl-biphenyl-3-yl)-1-(2-methyl-pyridin-4-yl)-3-o-tolyl-propan-1-one oxime]",578
13,"Cc1cc(C(CC(c2cccc(C#CCO)c2)c2ccccc2C)=NO)ccn1 (racemic) [Example 106, 3-[3-(3-Hydroxy-prop-1-ynyl)-phenyl]-1-(2-methyl-pyridin-4-yl)-3-o-tolyl-propan-1-one oxime]",255
14,"Cc1cc(C(CC(c2cccc(CCCO)c2)c2ccccc2C)=NO)ccn1 (racemic) [Example 107, 3-[3-(3-Hydroxy-propyl)-phenyl]-1-(2-methyl-pyridin-4-yl)-3-o-tolyl-propan-1-one oxime]",153
15,"COc1cc(C(CC(c2ccc(Br)cc2)c2ccccc2C)=NO)ccn1 (racemic) [Example 109, 3-(4-Bromo-phenyl)-1-(2-methoxy-pyridin-4-yl)-3-o-tolyl-propan-1-one oxime]",702
16,"Cc1cc(C(CC(c2ccc(C#CCCC(=O)O)cc2)c2ccccc2C)=NO)ccn1 (racemic) [Example 111, 5-{4-[3-[Hydroxyimino]-3-(2-methyl-pyridin-4-yl)-1-o-tolyl-propyl]-phenyl}-pent-4-ynoic acid]",27
